Source: patent US20080181876A1, “Methods for treating acute and subchronic pain” (priority 2007, published 2008)
Entries after “also recorded” stand apart in the source; their conditions may differ.

How the values were obtained:
[1] = test system: Sprague-Dawley (CD) rats; assay: Rat tail-flick latency test (heat source, 15 second maximum); assay type: in vivo; details: for antinociceptive activity (tail-flick latency), administered alone: single agent: morphine 1.2 mg/kg s.c. or ibudilast 50 mg/kg po
Protocol: Male Sprague-Dawley (CD) rats were acclimated to a room temperature of 79° F. to semi-confined conditions on a heated glass surface (79° F.). On the first day, rats were acclimated to a glass surface for 20-30 minutes. Rats were in chambers made of plexiglass and could move freely in either direction. No stimulus was given on day 1. On day 2, rats were acclimated for 5 minutes, and a high intensity beam of light was directed at each rat tail approximately 4 cm from the tip. The time it took for a rat tail to withdraw from the heat source was recorded as the baseline latent period for tail flick. Three trials were done with 5 minutes between trials for each rat. The light source was moved for the 2nd and 3rd trials one cm caudal and rostral of the original trial to avoid tissue damage. Animals were dosed orally with ibudilast (50 mg/kg in vehicle (10% HCO60+10% PEG in sterile water) and/or 1.2 mg/kg morphine s.c. formulated in saline for injection. Dose volumes were 1 ml/kg for s.c. administrations (i.e. opioid) and 10 ml/kg for p.o. administrations. Animals were dosed and returned to their cages until 5 minutes before each hourly time point, when they were returned to the glass surface and stimulated with the heat source (3 trials/time point). The ibudilast vehicle was also shown not to have analgesic activity and performed like the saline control. Studies were performed at Avigen Inc. under IACUC regulations.

[2] = test system: Sprague-Dawley rats; assay: Modified Hargreaves test (high and low intensity), tail and hindpaw withdrawal to heat stimuli; assay type: in vivo, rat
Protocol: Pathogen-free adult male Sprague-Dawley rats (300-375 g; Harlan Labs, Madison, Wis.) were used in all experiments. Rats were housed in temperature (23±3° C.) and light (12 h: 12 h light:dark cycle; lights on at 0700) controlled rooms with standard rodent chow and water available ad libitum. All procedures were approved by the Institutional Animal Care and Use Committee of the University of Colorado at Boulder. Each study represents an n=6 per group.
Morphine sulfate and oxycodone hydrochloride were purchased from Sigma (St. Louis, Mo., USA). Morphine and oxycodone were administered subcutaneously at 4 mg/kg in a dose volume of 1 ml/kg in sterile injection normal saline. Ibudilast was supplied by Avigen (Alameda, Calif., USA). Ibudilast was administered intraperitoneally at 7.5 mg/kg in a dose volume of 2.5 ml/kg in 35% PEG: 65% injection saline. Morphine and oxycodone doses reported are as free base concentrations.
Hargreaves tests for analgesia and hyperalgesia. Rats received at least three 60 min habituations to the test environment prior to behavioral testing. Thresholds for behavioral response to heat stimuli applied to the plantar surface of each hindpaw and tail were assessed using a modified Hargreaves test (Hargreaves et al., 1988). All testing was conducted blind with respect to group assignment. Briefly, baseline withdrawal values were calculated from an average of 2 consecutive withdrawal latencies of the tail and the left and the right hindpaws, measured at 15-min intervals. Latencies for the high intensity stimulus at baseline ranged from 2 to 3 s, and a cut-off time of 10 s was imposed to avoid tissue damage. Latencies for the low intensity stimulus at baseline ranged from 6 to 7 s, and a cut-off time of 20 s was imposed to avoid tissue damage. The order of paw and tail testing varied randomly.
The analgesic responses were calculated as the % of maximal possible effect
(Carmody, 1995). For high intensity Hargreaves, a cut off of 10 s was used. For low intensity Hargreaves, a 20 s cut off was employed. Since there is no unilateral paw effect expected (or observed) left and right withdrawal latencies were averaged. Statistical significance for analysis of time courses was assessed using a two-way repeated ANOVA with Bonferroni post hoc test and compared the analgesic responses of active treatments versus their vehicle controls. Area under the curves were analyzed with a students t-test. Significance was set at P<0.05. Calculations were conducted with Excel 2003 SP2 (Microsoft, Redmond, Calif., USA) & Prism 4.03 (GraphPad, San Diego, Calif., USA).
Following baseline withdrawal latency assessments (−45 min), animals received ibudilast or vehicle and were tested again 10 min later to determine if ibudilast or vehicle had any effect on withdrawal latencies. At this time (time 0), the animals received a subcutaneous saline injection (1 ml/kg) to control for conditions in Experiment 2 (see below). Animals were then tested every 10 minutes for 80 min alternating high and low intensity Hargreaves tests.
Following baseline withdrawal latency assessments (−45 min), animals received ibudilast or vehicle (−30 min) and were tested again at −10 min. At time 0, animals received a subcutaneous morphine injection (4 mg/kg in a dose volume of 1 ml/kg in injection saline) and were tested every 10 minutes for 230 min alternating high and low intensity Hargreaves tests. […]

| SMILES | tail-flick latency, co-administration of oral ibudilast and s.c. morphine ([1]; ibudilast 50 mg/kg po + morphine 1.2 mg/kg s.c. concurrently, vs either therapeutic alone) | antinociceptive activity (tail-flick latency), administered alone [1] | enhancement of morphine analgesia, tail and paw withdrawal latencies ([2]; ibudilast 7.5 mg/kg i.p. 30 min prior to morphine 4 mg/kg s.c., high and low intensity Hargreaves, vs vehicle + morphine) | enhancement of oxycodone analgesia, tail and paw withdrawal latencies ([2]; ibudilast 7.5 mg/kg i.p. 30 min prior to oxycodone 4 mg/kg s.c., high and low intensity Hargreaves, vs vehicle + oxycodone) | area under the analgesia curve, co-administration with morphine ([2]; ibudilast 7.5 mg/kg i.p. + morphine 4 mg/kg s.c., tail and hind paw, vs vehicle + morphine) | area under the analgesia curve, co-administration with oxycodone ([2]; ibudilast 7.5 mg/kg i.p. + oxycodone 4 mg/kg s.c., tail and hind paw, vs vehicle + oxycodone) | tail and paw withdrawal latencies (% maximal possible effect), ibudilast alone ([2]; ibudilast 7.5 mg/kg i.p. alone (followed by s.c. saline), high and low intensity Hargreaves, vs vehicle 35% PEG) |
| --- | --- | --- | --- | --- | --- | --- | --- |
| CC(C)C(=O)c1c(C(C)C)nn2ccccc12 [ibudilast, 3-isobutyryl-2-isopropylpyrazolo[1,5-a]pyridine] | substantial, greater-than-additive increase; also recorded: potentiates morphine-induced analgesia | weak antinociceptive activity | significantly enhanced; also recorded: potentiated analgesia | significantly enhanced; also recorded: potentiated analgesia | significant increase in analgesia | significant increase in analgesia | no significant influence; also recorded: little to no effect |
| CN1CC[C@]23c4c5ccc(O)c4O[C@H]2[C@@H](O)C=C[C@H]3[C@H]1C5 [morphine] |  | weak antinociceptive activity |  |  |  |  |  |
